Measurements as given in patent US11919895B2, “GPR183 antagonists for the treatment of pain” (Saint Louis University, priority 2019, dated 2024).
Entries after “also recorded” stand apart in the source; their conditions may differ. Where two headings read alike, the source gives them in different places.

What was measured:
[1] = system: GPR183 signaling in the spinal cord; assay: Example 2: cold allodynia induced by intrathecal GPR183 agonist (acetone test); type: in vivo, mice
Protocol: α,25-dihydroxycholesterol (7α,25-OHC) was purchased from Avanti Polar Lipids (Alabaster, AL) and dissolved in DMSO as a 2 mM stock. For injections 7α,25-OHC was diluted in saline. […] For intrathecal injections, NIBR189 was diluted in saline. Fluoronated 7α,25-OHC analog (SLUPP-1492) was synthesized as described previously (Deng et al., 2016) (detailed methods below and continued in Supplemental methods) and prepared as a 10 mM stock in DMSO. For injections SLUPP-1492 was diluted in saline. SAE compounds were purchased from Enamine (Monmouth Jet., NJ), all compounds were purified via normal phase chromatography and had purities of ≥95%. 100 mM Stock solutions of the SAE compounds were prepared in DMSO. For intrathecal injections, SAE compounds were diluted in saline. […]
Cold allodynia was measured as previously described using the acetone test (Xing et al., 2007; Yosten et al., 2020). Briefly, a small drop of acetone was applied to the hind paw of the animal using a flattened polyethylene tube and a syringe and the response to the cold stimulus was scored (0, no response; 1, brisk withdrawal or flick of the paw; 2. repeated flicking of the paw; 3. repeated flicking and licking of the paw). […] When mechanical and cold allodynia were measured on the same animal, mechano-allodynia was measured first with at least 15 minutes before testing cold allodynia.

[2] = biological target: T1, GPR183 (Homo sapiens, UniProt P32249); assay: Calcium mobilization in HL-60 cells after siRNA knock-down of GPR183; type: cell-based; set-up: host or cells: HL-60 (human leukemia) cells; conditions: HL-60 cells treated with siRNA, FIG. 12E
Protocol: Serial dilutions (5×) of compounds were prepared in 50:1 HBSS/HEPES.HL-60 cells (1×10^7) were incubated in 50:1 HBSS/HEPES containing 5 μM indo-1-AM (Thermo Fischer Scientific; Waltham. MA) and 0.05% pluronic acid for 0.5 hours at room temperature. Cells were centrifuged and washed with 50:1 HBSS/HEPES and resuspended in buffer. Cells were loaded onto a black 96-well Greiner Bio-One (Thermo Fischer Scientific; Waltham, MA) clear-bottom plate at 100,000 cells/well for a 5× dilution. For agonism assays, cells were immediately incubated for 15 minutes at 37° C. inside a FlexStation 3 Multimode Plate Reader (Molecular Devices; Sunnyvale, CA). Following the 15 minute incubation period, 5× of the compound was added and fluorescence was read for 150 seconds at 37° C. This method was utilized to determine the EC80 value of 7α,25·OHC (EC80=200 nM). For antagonism assays, before the addition of agonist, 5× of the antagonist was added and incubated for 15 minutes at 37° C. inside a FlexStation3. After allowing 15 minutes of equilibration, the determined EC80 of 7α,25-OHC (200 nM) was added, and fluorescence was read for 150 secs at 37° C. Calcium mobilization was determined ratiometrically using λex 350 nm and λem 405/490 nm. […]
siRNA was purchased from Santa Cruz Biotechnology (Dallas, TX). HL-60 cells were centrifuged and counted with a hemocytometer to obtain 2.5×10^6 cells. […]
Target sequence in this assay (P32249 whole entry): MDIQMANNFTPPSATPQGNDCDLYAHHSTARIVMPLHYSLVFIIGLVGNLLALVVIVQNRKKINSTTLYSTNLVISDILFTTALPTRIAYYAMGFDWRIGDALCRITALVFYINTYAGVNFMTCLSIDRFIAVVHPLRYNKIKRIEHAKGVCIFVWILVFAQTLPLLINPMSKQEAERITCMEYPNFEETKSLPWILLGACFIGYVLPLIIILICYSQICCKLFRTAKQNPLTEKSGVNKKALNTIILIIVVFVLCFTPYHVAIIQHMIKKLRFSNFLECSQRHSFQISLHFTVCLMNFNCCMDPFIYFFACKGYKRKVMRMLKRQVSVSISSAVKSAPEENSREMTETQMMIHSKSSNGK

[3] = biological target: T1, GPR183; assay: Calcium mobilization agonism assay in HL-60 cells; type: cell-based; set-up: host or cells: HL-60 (human leukemia) cells; conditions: for EC80: calcium mobilization
Protocol: The Human leukemia (HL)-60 cells (American Type Culture Collection; Manassas, VA) were cultivated in RPMI 1640 media containing 10% heat-inactivated fetal bovine serum (FBS), 1% penicillin, and 1% GlutaMax. Cells were passaged every 3 days and maintained at a cell concentration below 1×10^6 to prevent differentiation.
Serial dilutions (5×) of compounds were prepared in 50:1 HBSS/HEPES.HL-60 cells (1×10^7) were incubated in 50:1 HBSS/HEPES containing 5 μM indo-1-AM (Thermo Fischer Scientific; Waltham. MA) and 0.05% pluronic acid for 0.5 hours at room temperature. Cells were centrifuged and washed with 50:1 HBSS/HEPES and resuspended in buffer. Cells were loaded onto a black 96-well Greiner Bio-One (Thermo Fischer Scientific; Waltham, MA) clear-bottom plate at 100,000 cells/well for a 5× dilution. For agonism assays, cells were immediately incubated for 15 minutes at 37° C. inside a FlexStation 3 Multimode Plate Reader (Molecular Devices; Sunnyvale, CA). Following the 15 minute incubation period, 5× of the compound was added and fluorescence was read for 150 seconds at 37° C. This method was utilized to determine the EC80 value of 7α,25·OHC (EC80=200 nM). For antagonism assays, before the addition of agonist, 5× of the antagonist was added and incubated for 15 minutes at 37° C. inside a FlexStation3. After allowing 15 minutes of equilibration, the determined EC80 of 7α,25-OHC (200 nM) was added, and fluorescence was read for 150 secs at 37° C. Calcium mobilization was determined ratiometrically using λex 350 nm and λem 405/490 nm. Dose-response data were normalized to a 0.5% DMSO vehicle control and the maximum response. From the normalized data, non-linear regression curves were then generated to calculate the appropriate EC50 and IC50 values. Each compound was run in triplicate (n=3).
Target sequence in this assay (P32249 whole entry): as above

[4] = system: GPR183; assay: Example 1: mechano-allodynia induced by i.th. GPR183 agonist; type: in vivo, rodents
[5] = system: GPR183 signaling in the spinal cord; assay: Example 2: mechano-allodynia induced by intrathecal GPR183 agonist; type: in vivo, mice
Protocol: (§1) α,25-dihydroxycholesterol (7α,25-OHC) was purchased from Avanti Polar Lipids (Alabaster, AL) and dissolved in DMSO as a 2 mM stock. For injections 7α,25-OHC was diluted in saline. […] For intrathecal injections, NIBR189 was diluted in saline. Fluoronated 7α,25-OHC analog (SLUPP-1492) was synthesized as described previously (Deng et al., 2016) (detailed methods below and continued in Supplemental methods) and prepared as a 10 mM stock in DMSO. For injections SLUPP-1492 was diluted in saline. SAE compounds were purchased from Enamine (Monmouth Jet., NJ), all compounds were purified via normal phase chromatography and had purities of ≥95%. 100 mM Stock solutions of the SAE compounds were prepared in DMSO. For intrathecal injections, SAE compounds were diluted in saline. Acute intrathecal (i.th.) injections of compounds were performed as described previously (Lu and Schmidtko, 2013), all compounds were administered intrathecally in a total volume of 5-10 μL.
(§2) Mechano-allodynia was measured as previously described (Yosten et al., 2020) using calibrated von Frey filaments (Stoelting; range in mice: 0.07-2.00 g; in rats: 2-26 g) using the Dixon up-and-down method (Dixon, 1991). Mechano-allodynia was defined as a significant (p<0.05) reduction in mechanical paw withdrawal threshold [PWT (g)] compared to baseline forces (before treatment).

[6] = system: CCI-induced neuropathic pain; assay: Example 1: intrathecal injection in CCI-induced neuropathic pain; type: in vivo, rodents; conditions: for effect on behaviors on the contralateral side: intrathecal injection (5 μl), CCI; for reversal of CCI-induced neuropathic pain behaviors (allodynia) ipsilateral to injury: intrathecal injection at time of peak neuropathic pain (day 7)
[7] = system: CCI-induced mechano-allodynia; assay: Example 2: CCI-induced mechano-allodynia, intrathecal injection (von Frey); type: in vivo, mice
Protocol: as §1
CCI of the left sciatic nerve of mice and rats was performed under general anesthesia as previously described (Yosten et al., 2020). Briefly, animals were anesthetized with 2% isoflurane/O2, the left thigh was shaved and disinfected with Dermachlor solution. A small incision (1-1.5 cm) was made in the middle of the lateral aspect of the left thigh to expose the sciatic nerve. The nerve was loosely ligated around the diameter at 3 distinct sites (1 mm apart) using silk sutures (6.0, mice; 4.0, rats). The surgical site was closed with a skin clip and disinfected and treated with topical lidocaine (2%). Sham animals underwent the same procedure without nerve ligation. Peak allodynia developed by D7-D10 following CCI surgery.
as §2

[8] = Ardecky et al., 2010; cited from earlier work
[9] = Ardecky et al., 2010; cited from earlier work; remark: listed apart in the source
[10] = biological target: T1, GPR183; conditions: Benned-Jensen et al., 2013; read-out: IC50, GPR183 antagonist; cited from earlier work
Target sequence in this assay (P32249 whole entry, species assumed): as the sequence (P32249 whole entry) above

[11] = biological target: T1, GPR183; assay: Calcium mobilization antagonism assay (7α,25-OHC-induced) in HL-60 cells; type: cell-based; set-up: host or cells: HL-60 (human leukemia) cells; conditions: 7α,25-OHC at EC80
Target sequence in this assay (P32249 whole entry): as above
Protocol: Serial dilutions (5×) of compounds were prepared in 50:1 HBSS/HEPES.HL-60 cells (1×10^7) were incubated in 50:1 HBSS/HEPES containing 5 μM indo-1-AM (Thermo Fischer Scientific; Waltham. MA) and 0.05% pluronic acid for 0.5 hours at room temperature. Cells were centrifuged and washed with 50:1 HBSS/HEPES and resuspended in buffer. Cells were loaded onto a black 96-well Greiner Bio-One (Thermo Fischer Scientific; Waltham, MA) clear-bottom plate at 100,000 cells/well for a 5× dilution. […] For antagonism assays, before the addition of agonist, 5× of the antagonist was added and incubated for 15 minutes at 37° C. inside a FlexStation3. After allowing 15 minutes of equilibration, the determined EC80 of 7α,25-OHC (200 nM) was added, and fluorescence was read for 150 secs at 37° C. Calcium mobilization was determined ratiometrically using λex 350 nm and λem 405/490 nm. Dose-response data were normalized to a 0.5% DMSO vehicle control and the maximum response. […]

[12] = acute i.th. on D7 post-surgery, male and female mice, SAE-1 800 nM, SAE-10 1.4 μM, SAE-14 2.9 μM

C[C@H](CCCC(C)(C)O)[C@H]1CC[C@H]2[C@@H]3[C@H](O)C=C4C[C@@H](O)CC[C@]4(C)[C@H]3CC[C@]12C [7α,25-OHC, 7α,25-dihydroxycholesterol]
induction of cold-allodynia ([1]; i.th., 7α,25-OHC 240 nM, SLUPP-1492 615 nM, mice): induced time-dependent development of cold-allodynia
7α,25-OHC-induced calcium mobilization with GPR183-specific siRNA [2]: abolished
EC50 [3]: 42.4 nM
calcium response in HL-60 cells that express GPR183 ([3]; FIG. 1): very prominent calcium response
EC80 ([3]; HL-60 cells): 209 nM
EC80 ([3]; HL-60 cells, listed as 7α,25·OHC): 200 nM
HillSlope (best-fit value) ([3]; log(agonist) vs. normalized response, variable slope, HL-60 cells): 0.8624
ED50, induction of mechano-allodynia ([4]; i.th. injection, n=6/dose, 3 doses): 0.031 ng
induction of mechano-allodynia ([5]; acute i.th., 7α,25-OHC 24, 72, 240 nM, SLUPP-1492 615 nM, male and female mice): induced a dose and time-dependent mechano-allodynia
ED50, induction of mechano-allodynia ([5]; i.th. injection, mice, FIG. 14A): 74 nM

COc1ccc(C(=O)N2CCN(C(=O)/C=C/c3ccc(Br)cc3)CC2)cc1 [NIBR189]
effect on behaviors on the contralateral side [6]: No effects on behaviors on the contralateral side
reversal of CCI-induced neuropathic pain behaviors (allodynia) ipsilateral to injury [6]: reversal of CCI-induced neuropathic pain behaviors ipsilateral to injury in a time- and dose-dependent manner
reversal of CCI-induced mechano-allodynia ([7]; acute i.th. 0.7, 2.3, 23 μM on D7 post CCI, male mice): failed to reverse mechano-allodynia; also recorded: did not reverse

O=C(/C=C/c1ccc(Cl)cc1)N1CCC2(CC1)CN(Cc1ccc(Cl)c(Cl)c1)C(=O)O2 [GSK682753A]
microsomal stability [8]: poor
plasma stability [9]: poor
IC50 [10]: 200 nM

O=C(CCc1ccc(F)c(F)c1)Nc1cc(F)cc(N2CCOCC2)c1 [SAE-14]
prevention of cold-allodynia induced by 7α,25-OHC ([1]; i.th. pre-treatment 3 μM, 7α,25-OHC 480 nM, male and female mice): blocked these effects of 7α,25-OHC in a dose-dependent manner; also recorded: dose-dependently prevented
reversal of CCI-induced neuropathic pain behaviors (allodynia) ipsilateral to injury [6]: reversed allodynia in a time-dependent manner
observable adverse side effects ([6]; intrathecal injection, rodents): no observable adverse side effects
blockade of agonist-induced allodynia ([4]; i.th. delivery, rodents): blocked
IC50 [11]: 28.5 nM
prevention of mechano-allodynia induced by 7α,25-OHC ([5]; i.th. pre-treatment 0.3, 1, 3 μM, 7α,25-OHC 480 nM, male and female mice): blocked these effects of 7α,25-OHC in a dose-dependent manner; also recorded: dose-dependently prevented
reversal of CCI-induced mechano-allodynia [7, 12]: reversed CCI-induced mechanical allodynia in a time-dependent manner

COc1cc(C(C)NC(=O)Cc2c(C)nc(C)[nH]c2=O)cc(OC)c1OC (stereo not drawn) [SAE-1]
effect on behaviors on the contralateral side [6]: No effects on behaviors on the contralateral side
reversal of CCI-induced neuropathic pain behaviors (allodynia) ipsilateral to injury [6]: reversal of CCI-induced neuropathic pain behaviors ipsilateral to injury in a time- and dose-dependent manner
reversal of CCI-induced mechano-allodynia [7, 12]: reversed CCI-induced mechanical allodynia in a time-dependent manner

COc1cc2c(cc1OC)CN(C(=O)NOCc1ccccc1)CC2 [SAE-10]
reversal of CCI-induced mechano-allodynia [7, 12]: reversed CCI-induced mechanical allodynia in a time-dependent manner
